Holding throughout (assay type): cell-based, human
The test system of assay [1] is HGC27-R cells. Put plainly: Muse Ki67 cell proliferation assay. An excerpt: (§1) After the specified drug treatments, the cells were processed with the Muse Ki67 cell proliferation kit, which identified actively proliferating cells based on the expression of Ki67, a nuclear protein present in the active phases of the cell cycle (G1, S, G2, and M phases) and absent in the resting G0 phase. The Muse Ki67 Proliferation Assay was used with the Guava Muse Cell Analyzer according to the manufacturer’s instructions (Luminex Corporation, Austin, USA). Briefly, the cells were stained after fixation and permeabilization procedures, using Hu Ki67 or Hu IgG1 control fluorochrome-conjugated antibodies to distinguish Ki67(+) or Ki67(-) cells, respectively. The software provided the percentage of both Ki67(+) and Ki67(-) cells.

The test system of assay [2] is HGC27-S cells. Put plainly: Muse Ki67 cell proliferation assay. As to conditions: HGC27-S, 48 h.
Excerpt: as §1

Assay [3] relates to NCI-N87 cells. Put plainly: Muse Ki67 cell proliferation assay. As to conditions: NCI-N87, single treatment (10 µM compound; 2 nM PTX); control 78.2%.
Excerpt: as §1

Assay [4] relates to HGC27-R cells. As to the kind of experiment: Muse caspase 3/7 activation assay. To be noted: 48 h. The text has this: (§2) After the specified drug treatments, the cells were processed using the Muse Annexin V/Dead Cell Assay Kit (Luminex Corporation, Austin, USA) for quantitative analysis of live, early/ late apoptotic, and dead cells on a Muse Cell Analyzer. Briefly, the assay utilized Annexin V to detect phosphatidylserine on the external membrane of apoptotic cells. The fluorescent signal emitted by dye-conjugated antibodies was detected by flow cytometry technology (Muse Cell Analyzer, Luminex Corporation, Austin, USA). 7-Amino-Actinomycin D (7-AAD) dead cell marker was also used. The cells were then analyzed according to the user’s guide. […] After 48 h treatments the cells were processed according to the user’s guide and analyzed with the Muse caspase-3/7 kit (Millipore).The assay provides the relative percentage of living, early/late apoptotic or dead cells.

Assay [5] concerns HGC27-S cells. Put plainly: Muse caspase 3/7 activation assay. As to conditions: 48 h.
Excerpt: as §2

Assay [6] relates to NCI-N87 cells. Put plainly: Muse caspase 3/7 activation assay.
Excerpt: as §2

Where [7] appears, read: representative flow cytometry chart, 48 h, 10 µM CC48, PTX, single or combined as labelled.
[8] abbreviates: representative flow cytometry chart, 10 µM CC48, PTX, single or combined as labelled.
Where [9] appears, read: single treatment, untreated 6.6%.

Molecules are shown by their SMILES.

As to `CC(=O)O[C@H]1C(=O)[C@@]2(C)[C@H]([C@H](OC(=O)c3ccccc3)[C@]3(O)C[C@H](OC(=O)[C@H](O)[C@@H](NC(=O)c4ccccc4)c4ccccc4)C(C)=C1C3(C)C)[C@]1(OC(C)=O)CO[C@@H]1C[C@@H]2O` [PTX, Paclitaxel], the “Ki67(+) cells” value in the assay with HGC27-R cells [1] (setting [7]) was found to be 80.50%; in the assay on HGC27-S cells [2] (setting [8]), 58.10%. The “Ki67(-) cells” value came to 19.50% in the assay with HGC27-R cells [1] (setting [7]) and 41.90% in the assay with HGC27-S cells [2] (setting [8]). In addition, the “percentage of Ki67+ cells” value in the assay on HGC27-R cells [1] (single treatment, control 82.95%) is listed as 80.5%; with HGC27-S cells [2] (single treatment (10 µM CC48; 4 nM PTX), control 80.50%), 58.1%; in the assay with NCI-N87 cells [3], 68.1%. Also, the “apoptotic cells (caspase 3/7 activation)” value in the assay on HGC27-R cells [4] (single treatment (4 nM PTX, 6 µM AM630, 10 µM others), untreated 18.9%) worked out at 21.4%; in the assay with HGC27-S cells [5] (single treatment (4 nM PTX, 6 µM AM630, 10 µM others), untreated 13.05%), 26.2%. Also, the dead cells in the assay with HGC27-R cells [4] (setting [9]) stood at 7.70%; in the assay with HGC27-S cells [5] (setting [9]), 23.7%; in the assay with NCI-N87 cells [6] (NCI-N87, single treatment, control 5.8% / 5.6%), 8.1%. In addition, the “cells with activated caspase 3/7” value with NCI-N87 cells [6] (NCI-N87, single treatment (2 nM PTX, 6 µM AM630, 10 µM others), untreated 6.35%) was determined as 14.6%.

Source of the values: paper PMC12265377, “CC48 a new CB2R agonist/FAAH inhibitor dual drug blocks gastric cancer progression and overcomes paclitaxel resistance” (Journal of Experimental & Clinical Cancer Research : CR, 2025).
